# From publication doi:10.1101/2020.02.14.948786v2 (bioRxiv, 2020)
# Test system: Ca^2+ spiking in Neurospora crassa conidia expressing GCaMP6s
# Assay: Ca^2+ spiking in single conidia expressing GCaMP6s
# Assay type: cell-based
# Settings: conidia pre-treated with 5 mM BAPTA before ddH2O or PAF26 treatment
smiles,measurement,value
O=C(O)CN(CC(=O)O)c1ccccc1OCCOc1ccccc1N(CC(=O)O)CC(=O)O [BAPTA],frequency of Ca^2+ spiking after chelation of external Ca^2+,0
